These results are taken from article PMC10339131, “Characterization of two bacterial multi-flavinylated proteins harboring multiple covalent flavin cofactors” (BBA Advances, 2023).

The target in one test is T1, SaFMN3 (Streptomyces azureus, UniProt A0A0K8PVQ4).
T1 construct: gene SAZU_6878; N-terminal residues 1-48 (signal/membrane anchor) removed; His6-SUMO fusion, cleaved; E. coli BL21-AI with ApbE and CaFADS; mainly monomer; three FMN domains
T1 sequence (A0A0K8PVQ4 49-352): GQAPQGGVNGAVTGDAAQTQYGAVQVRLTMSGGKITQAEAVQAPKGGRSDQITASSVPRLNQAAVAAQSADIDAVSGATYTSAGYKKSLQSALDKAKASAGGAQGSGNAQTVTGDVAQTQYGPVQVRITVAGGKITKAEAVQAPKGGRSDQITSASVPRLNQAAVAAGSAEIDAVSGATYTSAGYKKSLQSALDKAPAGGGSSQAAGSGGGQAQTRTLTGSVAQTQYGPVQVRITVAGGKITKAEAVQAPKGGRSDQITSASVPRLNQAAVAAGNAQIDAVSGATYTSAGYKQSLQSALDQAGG
Kind of test: ESI-MS of intact protein; TCA precipitation; UV-visible spectrum. In kind it is binding. The following applies: covalent; three FMN sites, threonyl phosphoester; attached by co-expressed ApbE.

In another test the target is T2, CbFMN4-D1 (Clostridiaceae bacterium, UniProt Z9KOB2RJF1).
T2 construct: expressed in E. coli BL21-AI with ApbE and CaFADS; SUMO cleaved; two molecules per asymmetric unit from crystal packing
T2 sequence (Z9KOB2RJF1 1-85): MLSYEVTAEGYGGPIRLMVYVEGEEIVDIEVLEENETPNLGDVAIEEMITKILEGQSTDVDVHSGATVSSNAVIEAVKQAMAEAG
Kind of test: X-ray crystal structure, […] A. Conditions: covalent; bound via Thr67 (domain numbering); attached by co-expressed ApbE. The class given is binding.

For the molecule `Cc1cc2nc3c(=O)[nH]c(=O)nc-3n(C[C@H](O)[C@H](O)[C@H](O)COP(=O)(O)O)c2cc1C` [FMN], at SaFMN3, the “ESI-MS of intact protein; TCA precipitation; UV-visible spectrum” value is “exactly corresponds to the predicted mass of fully flavinylated SaFMN3”. Further, at CbFMN4-D1, the “X-ray crystal structure, 2.60 A” value was “Both CbFMN4-D1 molecules have a covalently bound FMN via Thr67”.
